Assay results: the supplement of paper PMC10307832

Columns and labels:
Assay in all cases: relative viability (nuclei count vs DMSO), 5 days (fraction); higher = more cells survive
[1] = compound: CN(C)C[C@@H]1CCn2cc(c3ccccc32)C2=C(C(=O)NC2=O)c2cn(c3ccccc23)CCO1 [Ruboxistaurin] + Cc1nc(NC(=O)N2CCC[C@H]2C(N)=O)sc1-c1ccnc(C(C)(C)C(F)(F)F)c1 [Alpelisib] (partner 2 µM)
Outline: (§1)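 Nuclei were stained with Hoechst during a one-step fixation (final 0.05% Triton X-100, 1% formaldehyde, 1 ug/ml Hoechst) carried out 5 days after dosing, then counted on 4× images. The cells, lung cancer lines in 1536-well plates, had been dosed by pin tool the day after seeding with one drug alone or a fixed anchor-drug dose plus five library-drug doses (not always all listed) in √10 steps. Relative viability is the nuclei count in treated wells divided by that in vehicle wells, and each value is the median of duplicate plates.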

[2] = compound: CN(C)C[C@@H]1CCn2cc(c3ccccc32)C2=C(C(=O)NC2=O)c2cn(c3ccccc23)CCO1 [Ruboxistaurin] + Cc1nc(Nc2ncc(C(=O)Nc3c(C)cccc3Cl)s2)cc(N2CCN(CCO)CC2)n1 [Dasatinib] (partner 0.075 µM)
Outline: as §1

[3] = compound: CN(C)C[C@@H]1CCn2cc(c3ccccc32)C2=C(C(=O)NC2=O)c2cn(c3ccccc23)CCO1 [Ruboxistaurin] + N=C(N)NC(=N)NCCc1ccccc1 [Phenformin] (partner 250 µM)
Outline: as §1

[4] = compound: CN(C)C[C@@H]1CCn2cc(c3ccccc32)C2=C(C(=O)NC2=O)c2cn(c3ccccc23)CCO1 [Ruboxistaurin] + CS(=O)(=O)CCNCc1ccc(-c2ccc3ncnc(Nc4ccc(OCc5cccc(F)c5)c(Cl)c4)c3c2)o1 [Lapatinib] (partner 2 µM)
Outline: as §1

[5] = compound: CN(C)C[C@@H]1CCn2cc(c3ccccc32)C2=C(C(=O)NC2=O)c2cn(c3ccccc23)CCO1 [Ruboxistaurin] + CS(=O)(=O)N1CCN(Cc2cc3nc(-c4cccc5[nH]ncc45)nc(N4CCOCC4)c3s2)CC1 [Pictilisib] (partner 1 µM)
Outline: as §1

| Cell Line | relative viability ([1]; first compound 0.08 µM) | relative viability ([1]; first compound 0.8 µM) | relative viability ([1]; first compound 2.53 µM) | relative viability ([1]; first compound 8 µM) | relative viability ([2]; first compound 0.08 µM) | relative viability ([2]; first compound 0.8 µM) | relative viability ([2]; first compound 2.53 µM) | relative viability ([2]; first compound 8 µM) | relative viability ([3]; first compound 0.08 µM) | relative viability ([3]; first compound 0.8 µM) | relative viability ([3]; first compound 2.53 µM) | relative viability ([3]; first compound 8 µM) | relative viability ([4]; first compound 0.08 µM) | relative viability ([4]; first compound 0.8 µM) | relative viability ([4]; first compound 2.53 µM) | relative viability ([4]; first compound 8 µM) | relative viability ([5]; first compound 0.08 µM) | relative viability ([5]; first compound 0.8 µM) | relative viability ([5]; first compound 2.53 µM) | relative viability ([5]; first compound 8 µM) |
| --- | --- | --- | --- | --- | --- | --- | --- | --- | --- | --- | --- | --- | --- | --- | --- | --- | --- | --- | --- | --- |
| 201T | 1.03 | 1.01 | 1.01 | 1.01 | 0.572 | 0.536 | 0.603 | 0.559 | 0.49 | 0.433 | 0.449 | 0.426 | 1.06 | 1 | 1.06 | 1.05 | 0.729 | 0.629 | 0.742 | 0.555 |
| A549 | 0.75 | 0.562 | 0.944 | 0.501 |  |  |  |  | 0.199 | 0.162 | 0.221 | 0.175 | 1.03 | 0.838 | 0.866 | 0.753 | 0.567 | 0.423 | 0.385 | 0.223 |
| A-427 | 1.07 | 0.996 | 1.02 | 0.874 | 0.677 | 0.639 | 0.675 | 0.374 | 0.398 | 0.314 | 0.327 | 0.273 | 0.995 | 0.988 | 0.917 | 0.983 | 0.7 | 0.594 | 0.738 | 0.557 |
| ABC-1 | 1.35 | 1.13 | 1.07 | 0.839 | 0.638 | 0.56 | 0.633 | 0.465 | 0.252 | 0.245 | 0.182 | 0.233 | 1.48 | 1.01 | 1.06 | 1.47 | 0.865 | 0.774 | 0.787 | 0.506 |
| BEN | 1.06 | 1.07 | 0.973 | 0.787 | 0.316 | 0.297 | 0.307 | 0.298 | 0.26 | 0.292 | 0.248 | 0.245 | 0.803 | 0.617 | 0.708 | 0.564 | 0.604 | 0.538 | 0.535 | 0.406 |
| CAL-12T | 1.47 | 1.17 | 1.27 | 1.13 | 0.339 | 0.324 | 0.301 | 0.28 | 0.597 | 0.585 | 0.568 | 0.563 | 0.735 | 0.554 | 0.765 | 0.78 | 0.482 | 0.349 | 0.395 | 0.386 |
| COR-L23 | 0.804 | 0.814 | 0.73 | 0.695 | 0.489 | 0.399 | 0.549 | 0.602 | 0.408 | 0.41 | 0.519 | 0.493 | 1.23 | 0.914 | 1.09 | 1.08 | 0.802 | 0.688 | 0.676 | 0.59 |
| COR-L 105 | 1.17 | 1.09 | 0.911 | 0.706 | 0.352 | 0.236 | 0.362 | 0.262 | 0.599 | 0.436 | 0.446 | 0.4 | 0.335 | 0.385 | 0.365 | 0.341 | 0.463 | 0.388 | 0.385 | 0.313 |
